Literature values in patent publication US7622458B2, “Combination of ET-743 and a 5-fluorouracil pro-drug for cancer treatment” (Pharma Mar, S.A.U., priority 2004, dated 2009).

Legend:
[1] = system: sarcoma and breast and ovarian carcinoma; settings: 1-, 3-, 24-, 72-hour i.v. infusion and 1 hour daily x5 schedules; patients with sarcoma and breast and ovarian carcinoma
[2] = system: human tumor xenografts, including melanoma and ovarian and breast carcinoma; settings: xenografts grown in athymic mice

**Q.** For `COc1cc2c(cc1O)CCN[C@]21CS[C@@H]2c3c(OC(C)=O)c(C)c4c(c3[C@H](COC1=O)N1[C@@H]2[C@H]2c3c(cc(C)c(OC)c3O)C[C@@H]([C@@H]1O)N2C)OCO4` [ET-743, ecteinascidin 743], which “Clinical responses in phase I studies” value [1] is on record?
**A.** Promising responses

**Q.** And the “Antineoplastic activity against human tumor xenografts” value [2]?
**A.** potent antineoplastic activity
